Experimental data taken from US20260207618A1, “PYRIMIDINE CARBOXAMIDE COMPOUNDS” (Acrivon Therapeutics, Inc., priority 2022, published 2026).

Columns and labels:
[1] = system: Cdk1 phosphorylated on tyrosine 15; assay: High-content imaging of pCdk1 Y15 by immunofluorescence in ACHN cells; assay type: cell-based; settings: Homo sapiens, high-content imaging (IF), 4 h, 7 to 5000 nM, read-out: CDK1 Tyr15 Phosphorylation EC50 (IC50)
Protocol: ACHN renal cell carcinoma cell line (ATCC) was cultured in Minimum Essential Medium Eagle supplemented with 10% fetal calf serum (Sigma), 1% Penicillin-Streptomycin and 10 mM HEPES buffer (HyClone). Cell cultures were kept in a humidified incubator at 37° C. and 5% CO2. Cells were routinely tested for Mycoplasma contamination.
High-content imaging of ACHN renal cell carcinoma cells was used for quantification of CDK1 phosphorylated on tyrosine 15 by immunofluorescence (“IF”). 20 000 cells per well were seeded in tissue culture treated 96 well plates and treated with compounds at concentrations ranging from 7 to 5000 nM for 4 h. Cells were fixated for 15 minutes in 4% paraformaldehyde solution, washed in PBS and permeabilized using 0.2% Triton X-100. Blocking was performed for 1 h at RT using Blocker FL Fluorescent Blocking Buffer (Thermo Scientific), thereafter cells were incubated with primary antibody (rabbit anti-pCDK1 Y^15, #4539, Cell Signaling Technology) at 4° C. ON. Alexa Fluor Plus 647 labelled goat anti-rabbit (A32733. Thermo Scientific) was used as secondary antibody. After washing in PBS, nuclei were stained with DAPI solution for 10 min at RT, protected from light. Cells were imaged using an ImageXpress Pico automated imaging system and CellReporter Xpress software (Molecular Devices). The percentage cells with nuclear positivity for pCdk1 Y^15 compared to DMSO control was determined for each well and drug dose response curves and EC50 values were calculated and visualized using GraphPad Prism.

[2] = molecular target: T1, recombinant human Wee1A kinase (Homo sapiens, UniProt P30291); assay: LanthaScreen Europium (Eu) Kinase Binding Assay, Wee1A kinase (TR-FRET tracer displacement); settings: 30 nM tracer 178, 5 nM Wee1A kinase, 60 minutes at room temperature
T1 construct: full length Wee1A kinase was expressed by baculovirus in insect cells; purchased Invitrogen PV3817; host or cells: insect cells (baculovirus)
T1 sequence (P30291 whole entry): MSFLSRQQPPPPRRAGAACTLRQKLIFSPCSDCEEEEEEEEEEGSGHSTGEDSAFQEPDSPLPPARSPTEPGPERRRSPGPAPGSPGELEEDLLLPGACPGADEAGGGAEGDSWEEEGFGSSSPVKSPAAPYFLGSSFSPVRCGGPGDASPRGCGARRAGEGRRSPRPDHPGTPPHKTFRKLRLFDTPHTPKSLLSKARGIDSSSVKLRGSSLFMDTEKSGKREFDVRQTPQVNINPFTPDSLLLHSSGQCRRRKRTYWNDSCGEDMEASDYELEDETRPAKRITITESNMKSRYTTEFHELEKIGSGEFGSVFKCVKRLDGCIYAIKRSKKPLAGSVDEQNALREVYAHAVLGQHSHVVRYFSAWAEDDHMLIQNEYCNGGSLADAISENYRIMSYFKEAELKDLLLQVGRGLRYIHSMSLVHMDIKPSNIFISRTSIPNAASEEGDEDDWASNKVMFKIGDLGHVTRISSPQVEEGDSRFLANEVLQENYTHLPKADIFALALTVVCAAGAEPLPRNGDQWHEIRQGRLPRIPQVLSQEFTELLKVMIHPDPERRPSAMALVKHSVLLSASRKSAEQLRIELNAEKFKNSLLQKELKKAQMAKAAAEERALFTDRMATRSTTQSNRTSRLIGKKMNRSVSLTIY
Excerpt: We used a LanthaScreen Europium (Eu) Kinase Binding Assay to determine the binding of provided compounds to Wee1A kinase. The assay utilizes an Alexa Fluor 647-labeled ATP competitive kinase tracer that binds to the ATP binding site of a GST-tagged Wee1A kinase, while a europium (Eu) labeled antibody binds to the GST tag. The proximity of fluorescently labeled kinase tracer and europium (Eu) donor fluorophore antibody leads to fluorescence resonance energy transfer (FRET) to the fluorescence label (acceptor) upon excitation of the Eu (donor). Displacement of tracer from the ATP-binding site by a test compound disturbs the proximity between both labels thus lowering the FRET.
This time resolved-FRET binding assay was performed in white 384-well low volume plates (Greiner, cat #784075), at room temperature in kinase buffer A (KBA; Invitrogen cat #PV3189), consisting of 50 mM HEPES-NaOH (pH 7.5), 0.01% Brij-35, 10 mM MgCl2, and 1 mM EGTA. 5 μl of compound (diluted in reaction buffer, to 1% DMSO) were added to various wells in the plate, followed by 5 μl each of recombinant human Wee1A kinase (full length Wee1A kinase was expressed by baculovirus in insect cells using a N-terminal GST tag (MW: 99.1 kDa) (Invitrogen cat #PV3817) and LanthaScreen Eu-anti-GST antibody (Invitrogen, cat #PV5594). After this, 5 μl of kinase tracer 178 (Invitrogen, cat #PV5593) was added to the plate and the plate was incubated for 60 minutes at room temperature. The final assay conditions in each well were: 30 nM tracer 178, 5 nM Wee1A kinase and 2 nM Eu-labeled antibody in total assay volume of 15 μl. An Envision 2104 (Perkin-Elmer) Plate Reader with the following time-resolve fluorescence setting was used for performing LanthaScreen kinase binding assay. • Excitation 320 nm (30 nm bandpass) • Kinase Tracer Emission 665 nm (10 nm bandpass) • LanthaScreen Eu-anti-Tag Antibody Emission 615 nm (10 nm bandpass) • Dichroic Mirror Instrument dependent • Delay Time 100 μs • Integration Time 200 μs
To calculate the emission ratio, the acceptor/tracer emission ([…]) was divided by the antibody/donor emission ([…]) and the average of duplicate measurement was used for calculations. Data plotting, analysis of binding, and curve fitting was done using Excel add-in XLfit version 5.5.0.5 (IDBS, Guildford, United Kingdom).

Row | SMILES | EC50 [1] | IC50 [2] | Wee1A kinase Binding IC50 [2]
1 | COc1nc(Nc2ccc(C3CCN(C)CC3)c(C)c2)ncc1C(=O)Nc1ccccc1 [Compound 101, 4-methoxy-2-((3-methyl-4-(1-methylpiperidin-4-yl)phenyl)amino)-N-phenylpyrimidine-5-carboxamide] | > 1 µM | 0.01 to 0.1 µM | 
2 | CN1CCN(c2ccc(Nc3ncc(C(=O)Nc4c(Cl)cccc4Cl)c(OC4CC4)n3)cc2)CC1 [Compound 102, 4-cyclopropoxy-N-(2,6-dichlorophenyl)-2-((4-(4-methylpiperazin-1-yl)phenyl)amino)pyrimidine-5-carboxamide] | 0.1 to 0.5 µM | ≤ 0.01 µM | 
3 | CN1CCN(c2ccc(Nc3ncc(C(=O)Nc4c(Cl)cccc4Cl)c(OCC(F)(F)F)n3)cc2)CC1 [Compound 103, N-(2,6-dichlorophenyl)-2-{[4-(4-methylpiperazin-1-yl)phenyl]amino}-4-(2,2,2-trifluoroethoxy)pyrimidine-5-carboxamide] |  | 0.01 to 0.1 µM | 
4 | Cc1cc(Nc2ncc(C(=O)Nc3c(Cl)cccc3Cl)c(OCC(F)(F)F)n2)ccc1C1CCN(C)CC1 [Compound 104, N-(2,6-dichlorophenyl)-2-{[3-methyl-4-(1-methylpiperidin-4-yl)phenyl]amino}-4-(2,2,2-trifluoroethoxy)pyrimidine-5-carboxamide] | 0.1 to 0.5 µM | ≤ 0.01 µM | 
5 | CN1CCN(c2ccc(Nc3ncc(C(=O)Nc4c(Cl)cccc4Cl)c(OCC4CCCO4)n3)cc2)CC1 (stereo not shown) [Compound 105] | > 1 µM | ≤ 0.01 µM | 
6 | COc1nc(Nc2ccc(C3CCN(C)CC3)c(C)c2)ncc1C(=O)Nc1c(C)cccc1Cl [Compound 106, N-(2-chloro-6-methylphenyl)-4-methoxy-2-((3-methyl-4-(1-methylpiperidin-4-yl)phenyl)amino)pyrimidine-5-carboxamide] | 0.1 to 0.5 µM | ≤ 0.01 µM | 
7 | COc1nc(Nc2ccc(C3CCN(C)CC3)c(C)c2)ncc1C(=O)Nc1ccccc1Br [Compound 107, N-(2-bromophenyl)-4-methoxy-2-((3-methyl-4-(1-methylpiperidin-4-yl)phenyl)amino)pyrimidine-5-carboxamide] | > 1 µM | ≤ 0.01 µM | 
8 | COc1nc(Nc2ccc(C3CCN(C)CC3)c(C)c2)ncc1C(=O)Nc1ccccc1Cl [Compound 109, N-(2-chlorophenyl)-4-methoxy-2-((3-methyl-4-(1-methylpiperidin-4-yl)phenyl)amino)pyrimidine-5-carboxamide] |  | 0.01 to 0.1 µM | 
9 | COc1nc(Nc2ccc(C3CCN(C)CC3)c(C)c2)ncc1C(=O)Nc1c(C)ccnc1C [Compound 112, N-(2,4-dimethylpyridin-3-yl)-4-methoxy-2-{[3-methyl-4-(1-methylpiperidin-4-yl)phenyl]amino}pyrimidine-5-carboxamide] |  | 0.01 to 0.1 µM | 
10 | COc1nc(Nc2ccc(C3CCN(C)CC3)c(C)c2)ncc1C(=O)Nc1ccccc1C#N [Compound 115, N-(2-cyanophenyl)-4-methoxy-2-((3-methyl-4-(1-methylpiperidin-4-yl)phenyl)amino)pyrimidine-5-carboxamide] |  | 0.01 to 0.1 µM | 
11 | COc1nc(Nc2ccc(C3CCN(C)CC3)c(C)c2)ncc1C(=O)Nc1c(C)ccnc1Cl [Compound 117, N-(2-chloro-4-methylpyridin-3-yl)-4-methoxy-2-{[3-methyl-4-(1-methylpiperidin-4-yl)phenyl]amino}pyrimidine-5-carboxamide] |  | 0.01 to 0.1 µM | 
12 | COc1nc(Nc2ccc(C3CCN(C)CC3)c(C)c2)ncc1C(=O)Nc1cccc(O)c1 [Compound 118] |  | 0.01 to 0.1 µM | 
13 | CN(C)CCCOc1nc(Nc2ccc(N3CCN(C)CC3)cc2)ncc1C(=O)Nc1c(Cl)cccc1Cl [Compound 124, N-(2,6-dichlorophenyl)-4-(3-(dimethylamino)propoxy)-2-((4-(4-methylpiperazin-1-yl)phenyl)amino)pyrimidine-5-carboxamide] |  |  | C (IC50 greater than 100 nM but less than or equal to 5.00 nM)
14 | C#Cc1ccccc1NC(=O)c1cnc(Nc2ccc(C3CCN(C)CC3)c(C)c2)nc1OC [Compound 126, N-(2-ethynylphenyl)-4-methoxy-2-((3-methyl-4-(1-methylpiperidin-4-yl)phenyl)amino)pyrimidine-5-carboxamide] |  | 0.01 to 0.1 µM | 
15 | COc1nc(Nc2ccc(C3CCN(C)CC3)c(C)c2)ncc1C(=O)Nc1cc(C#N)ccc1Cl [Compound 131, N-(2-chloro-5-cyanophenyl)-4-methoxy-2-((3-methyl-4-(1-methylpiperidin-4-yl)phenyl)amino)pyrimidine-5-carboxamide] |  |  | C (IC50 greater than 100 nM but less than or equal to 5.00 nM)
16 | COc1nc(Nc2ccc(C3CCN(C)CC3)c(C)c2)ncc1C(=O)Nc1cc(NC(C)=O)ccc1C [Compound 169] |  |  | C (IC50 greater than 100 nM but less than or equal to 5.00 nM)
17 | COc1nc(Nc2ccc(C3CCN(C)CC3)c(C)c2)ncc1C(=O)Nc1cc([N+](=O)[O-])ccc1C [Compound 170] |  |  | C (IC50 greater than 100 nM but less than or equal to 5.00 nM)

Further lines, with some results ahead:

Row | EC50 [1] | IC50 [2] | SMILES | Wee1A kinase Binding IC50 [2]
18 | > 1 µM | ≤ 0.01 µM | COc1nc(Nc2cnn([C@@H]3CCCNCC3)c2)ncc1C(=O)Nc1c(Cl)cccc1Cl (single isomer, unassigned) [Compound 186] | 
19 | > 1 µM | ≤ 0.01 µM | COc1nc(Nc2cnn([C@H]3CCCNCC3)c2)ncc1C(=O)Nc1c(Cl)cccc1Cl (single isomer, unassigned) [Compound 187] | 
20 | 0.1 to 0.5 µM | ≤ 0.01 µM | COc1nc(Nc2cnn([C@@H]3CCCN(C)CC3)c2)ncc1C(=O)Nc1c(Cl)cccc1Cl (single isomer, unassigned) [Compound 188] | 
21 |  | 0.01 to 0.1 µM | COc1nc(Nc2ccc(C3CCN(C)CC3)c(C)c2)ncc1C(=O)Nc1cnccc1Cl [Compound 139, N-(4-chloropyridin-3-yl)-4-methoxy-2-((3-methyl-4-(1-methylpiperidin-4-yl)phenyl)amino)pyrimidine-5-carboxamide] | 
22 | > 1 µM |  | COc1nc(Nc2ccc(OCCN3CCOCC3)c(C)c2)ncc1C(=O)Nc1c(Cl)ccc(O)c1C [Compound 151, N-(6-chloro-3-hydroxy-2-methylphenyl)-4-methoxy-2-((3-methyl-4-(2-morpholinoethoxy)phenyl)amino)pyrimidine-5-carboxamide] | 
23 |  | 0.01 to 0.1 µM | COc1nc(Nc2cnn(C[C@H]3CCCN3)c2)ncc1C(=O)Nc1c(Cl)cccc1Cl [Compound 159] | 
24 |  | 0.01 to 0.1 µM | COc1nc(Nc2cnn(C[C@@H]3CCCN3)c2)ncc1C(=O)Nc1c(Cl)cccc1Cl [Compound 160] | 
25 |  | 0.01 to 0.1 µM | COc1nc(Nc2ccc(C(=O)N3CCN(C)CC3)c(C)c2)ncc1C(=O)Nc1c(Cl)cccc1Cl [Compound 168] | 
26 |  | 0.01 to 0.1 µM | COc1nc(Nc2ccc(C3CCN(C)CC3)nc2)ncc1C(=O)Nc1c(Cl)cccc1Cl [Compound 183, N-2,6-dichlorophenyl-4-methoxy-2-[6-(1-methyl-4-piperidyl)-3-pyridylamino]-5-pyrimidinecarboxamide] | 
27 |  | 0.01 to 0.1 µM | COc1nc(Nc2ccc(-c3ccn(C)c3)c(C)c2)ncc1C(=O)Nc1c(Cl)cccc1Br [Compound 191, N-(2-bromo-6-chlorophenyl)-4-methoxy-2-((3-methyl-4-(1-methyl-1H-pyrrol-3-yl)phenyl)amino)pyrimidine-5-carboxamide] | 
28 |  | ≤ 0.01 µM | COc1nc(Nc2ccc([C@H]3CCCN(C)CC3)c(C)c2)ncc1C(=O)Nc1c(Cl)cccc1Br [Compound 208] | 
